Measured values from publication PMC4021102, “The onset of grapevine berry ripening is characterized by ROS accumulation and lipoxygenase-mediated membrane peroxidation in the skin” (BMC Plant Biology, 2014).

Target: T1, PnLOXA (Vitis vinifera, UniProt D7SLA9)
T1 construct: gene VIT_06s0004g01510
Details: 0.1 mM substrate, pH 6.5, 25 °C; exclusively 13-product

T1 sequence (D7SLA9 entry or part of it): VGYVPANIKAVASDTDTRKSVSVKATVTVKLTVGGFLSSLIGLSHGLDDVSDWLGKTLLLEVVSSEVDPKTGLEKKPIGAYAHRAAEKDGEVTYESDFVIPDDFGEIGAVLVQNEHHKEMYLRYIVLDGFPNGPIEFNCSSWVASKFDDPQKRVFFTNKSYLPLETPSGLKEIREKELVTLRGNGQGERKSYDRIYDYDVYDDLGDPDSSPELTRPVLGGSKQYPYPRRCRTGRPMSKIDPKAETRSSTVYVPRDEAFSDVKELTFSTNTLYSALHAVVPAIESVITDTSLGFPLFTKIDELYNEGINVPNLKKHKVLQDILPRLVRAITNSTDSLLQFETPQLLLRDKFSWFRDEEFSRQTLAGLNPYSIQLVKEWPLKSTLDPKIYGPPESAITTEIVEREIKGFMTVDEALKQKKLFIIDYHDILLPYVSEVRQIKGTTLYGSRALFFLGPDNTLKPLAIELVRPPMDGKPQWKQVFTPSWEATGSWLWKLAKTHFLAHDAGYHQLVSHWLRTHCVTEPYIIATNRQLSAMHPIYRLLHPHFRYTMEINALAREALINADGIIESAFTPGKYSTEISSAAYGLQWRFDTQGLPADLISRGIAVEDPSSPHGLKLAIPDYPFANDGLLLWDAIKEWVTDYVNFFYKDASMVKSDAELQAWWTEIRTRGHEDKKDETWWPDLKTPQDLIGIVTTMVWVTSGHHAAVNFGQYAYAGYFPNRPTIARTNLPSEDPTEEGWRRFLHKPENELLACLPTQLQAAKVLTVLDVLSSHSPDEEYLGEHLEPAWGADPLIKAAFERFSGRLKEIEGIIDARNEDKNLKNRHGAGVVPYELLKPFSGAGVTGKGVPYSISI

CC/C=C\C/C=C\C/C=C\CCCCCCCC(=O)O [α-linolenic acid]
peroxidation product identified by ESI-MS/MS: PnLOXA catalyzed the regiospecific peroxidation of α-linolenic acid to produce exclusively 13-HOTrE
